Results reported in patent US20130065818A1, “Arylamide Compounds And Compositions And Uses Thereof” (POLYMEDIX, priority 2006, published 2013).
≈ marks a conversion by molar mass, not a printed value. Where “and” joins values, the source holds several entries; their conditions need not be identical. Identical values can stand only once. Like-named read-outs stand apart in the source and are kept apart here. Blank lines part the entries; values can stand above or below the molecule they belong to.

What was measured:
Assay type in all cases: cell-based
[1] = test system: Staphylococcus aureus fluoroquinolone-susceptible; experiment: MIC, 25 ocular isolates, broth microdilution (Example 8)
Method: • Mueller-Hinton Broth in tubes was inoculated with 25 ocular isolates of Staphylococcus aureus fluoroquinolone-susceptible, Staphylococcus aureus fluoroquinolone-resistant, Staphylococcus epidermidis (Coagulase-negative Staphylococcus) fluoroquinolone-susceptible, Staphylococcus epidermidis (Coagulase-negative Staphylococcus) fluoroquinolone-resistant, Pseudomonas aeruginosa and Serratia marcescens, plus two controls (Staphylococcus aureus and E. coli) and incubated at 37° C. overnight on a shaker set at 250 rpm.
(§1) On the day of testing, a 640 μg/ml (1280 μg/ml for Serratia marcescens and Pseudomonas aeruginosa) concentration was prepared from a 1% stock solution in 0.01% acetic acid, 0.2% BSA in polypropylene tubes.
(§2) Serial doubling dilutions in 0.01% acetic acid, 0.2% BSA in 96 well polypropylene plates, which are used as reservoirs for the inoculation of the test plates, were carried out to obtain serial dilutions of test agents at 10 times the required test concentrations: 640, 320, 160, 80, 40, 20, 10, 5, 2.5, 1.25, and 0.625 μg/ml (1280, 640, 320, 160, 80, 40, 20, 10, 5, 2.5, and 1.25 μg/ml for Serratia marcescens and Pseudomonas aeruginosa).
(§3) Ten μl of diluted 10×test agents was added to each well of one row of the 96 well polypropylene plates from column 2 to column 12 (column 1 is a control for bacteria alone, with no peptide). Test agent concentrations in columns 2-12 were as follows: 64, 32, 16, 8, 4, 2, 1, 0.5, 0.25, 0.125, and 0.0625 μg/ml (128, 64, 32, 16, 8, 4, 2, 1, 0.5, 0.25, and 0.125 μg/ml for Serratia marcescens and Pseudomonas aeruginosa). The same peptide was in each of the 8 rows. One plate contained dilutions of one test agent and 8 bacterial isolates.
On the day of testing, the overnight bacterial broth cultures of Staphylococcus aureus fluoroquinolone-susceptible, Staphylococcus aureus fluoroquinolone-resistant, Staphylococcus epidermidis (Coagulase-negative Staphylococcus) fluoroquinolone-susceptible, Staphylococcus epidermidis (Coagulase-negative Staphylococcus) fluoroquinolone-resistant, Serratia marcescens, and Pseudomonas aeruginosa, plus two controls (Staphylococcus aureus and E. coli) were diluted in 5 ml of trypticase soy broth to yield turbidity equal to a 0.5 McFarland standard. The final inoculum for MIC testing for Staphylococcus aureus fluoroquinolone-susceptible, Staphylococcus aureus fluoroquinolone-resistant, Staphylococcus epidermidis (Coagulase-negative Staphylococcus) fluoroquinolone-susceptible, Staphylococcus epidermidis (Coagulase-negative Staphylococcus) fluoroquinolone-resistant, Serratia marcescens, and Pseudomonas aeruginosa was achieved by placing 0.05 ml of the turbidity adjusted sample to 5 ml of Mueller-Hinton broth.
(§4) Ninety μl of the bacterial suspensions was dispensed in each well from column 1 to column 12. Each bacterial isolate was placed in one row of a 96 well polypropylene plate containing the test agents. The plates were placed on shaker at 15 minutes at room temperature, and then incubated at 37° C. overnight. MICs were determined visually as the lowest concentration of drug that inhibits visible bacterial growth.

Haemophilus influenzae = experiment: as above
Method: HTM (Haemophilus Test Medium) in tubes was inoculated with 25 ocular isolates of Haemophilus influenzae plus two controls (Staphylococcus aureus and E. coli) and incubated at 37° C. overnight. Additionally, Mueller-Hinton Broth in tubes was inoculated with two controls (Staphylococcus aureus and E. coli) and incubated at 37° C. overnight on a shaker set at 250 rpm.
as §1, §2, §3
On the day of testing, the overnight bacterial broth cultures of Haemophilus species was diluted in 5 ml of trypticase soy broth to yield turbidity equal to a 0.5 McFarland standard. The final inoculum for MIC testing for Haemophilus species was achieved by placing 0.1 ml of the turbidity adjusted sample to 5 ml of HTM medium.
as §4

[2] = test system: Fluoroquinolone-Resistant Methicillin-Resistant Staphylococcus aureus Strain K950; experiment: MIC characterization of strain K950; settings: read-out: MIC (Minimum Inhibitory Concentration)
[3] = test system: Ciprofloxacin Resistant (CR) S. aureus (CRSA); experiment: MIC of clinical ocular isolates (Example 1); settings: Staphylococcus aureus; CRSA clinical ocular isolates (n=28)
CS S. epidermidis (CSSE) = experiment: MIC of clinical ocular isolates (Example 1); settings: Staphylococcus epidermidis; CSSE clinical ocular isolates (n=26)
[4] = Haemophilus influenzae, n=25 isolates, >64 replaced with 128

Structure (SMILES): N=C(N)NCCCCC(=O)Nc1cc(C(F)(F)F)cc(NC(=O)c2cc(C(=O)Nc3cc(C(F)(F)F)cc(NC(=O)CCCCNC(=N)N)c3O[C@@H]3CCNC3)ncn2)c1O[C@@H]1CCNC1 [Oligomer 4]
MIC, sorted list for MIC50 and MIC90 Determinations (QSSA-A) ([1]; 25 isolates sorted ascending, Row 1-25, in µg/mL): 0.250 and 0.500
MIC50 ([1]; 25 isolates, Row 13): 0.25 mg/L (≈ 0.267 µM)
MIC90 ([1]; 25 isolates, Row 22): 0.5 mg/L (≈ 0.534 µM)
Range of MICs ([1]; 25 isolates, Summary of Results): 0.125 to 0.5 µg/mL
MIC ([1]; Staphylococcus aureus, 25 ocular isolates, read-out: Median MIC): ≤ 0.25 mg/L
MIC ([1]; Staphylococcus aureus, isolate 1—E402, read-out: MIC): 0.25 mg/L (≈ 0.267 µM)
MIC ([1]; Staphylococcus aureus, isolate 2—E1512, read-out: MIC): 0.25 mg/L (≈ 0.267 µM)
MIC ([1]; Staphylococcus aureus, isolate 3—E253, read-out: MIC): 0.25 mg/L (≈ 0.267 µM)
MIC ([1]; Staphylococcus aureus, isolate 4—K1518, read-out: MIC): 0.25 mg/L (≈ 0.267 µM)
MIC ([1]; Staphylococcus aureus, isolate 5—K1525, read-out: MIC): 0.125 mg/L (≈ 0.133 µM)
MIC ([1]; Staphylococcus aureus, isolate 6—K1663, read-out: MIC): 0.5 mg/L (≈ 0.534 µM)
MIC ([1]; Staphylococcus aureus, isolate 7—K1648, read-out: MIC): 0.25 mg/L (≈ 0.267 µM)
MIC ([1]; Staphylococcus aureus, isolate 8—K1646, read-out: MIC): 0.25 mg/L (≈ 0.267 µM)
MIC ([1]; Staphylococcus aureus, isolate 9—K1642, read-out: MIC): 0.5 mg/L (≈ 0.534 µM)
MIC ([1]; Staphylococcus aureus, isolate 10—K1638, read-out: MIC): 0.5 mg/L (≈ 0.534 µM)
MIC ([1]; Staphylococcus aureus, isolate 11—K1628, read-out: MIC): 0.25 mg/L (≈ 0.267 µM)
MIC ([1]; Staphylococcus aureus, isolate 12—K1618, read-out: MIC): 0.5 mg/L (≈ 0.534 µM)
MIC ([1]; Staphylococcus aureus, isolate 13—K1617, read-out: MIC): 0.25 mg/L (≈ 0.267 µM)
MIC ([1]; Staphylococcus aureus, isolate 14—K1611, read-out: MIC): 0.25 mg/L (≈ 0.267 µM)
MIC ([1]; Staphylococcus aureus, isolate 15—K1607, read-out: MIC): 0.25 mg/L (≈ 0.267 µM)
MIC ([1]; Staphylococcus aureus, isolate 16—K1600, read-out: MIC): 0.25 mg/L (≈ 0.267 µM)
MIC ([1]; Staphylococcus aureus, isolate 17—K1591, read-out: MIC): 0.25 mg/L (≈ 0.267 µM)
MIC ([1]; Staphylococcus aureus, isolate 18—K1585, read-out: MIC): 0.25 mg/L (≈ 0.267 µM)
MIC ([1]; Staphylococcus aureus, isolate 19—K1583, read-out: MIC): 0.25 mg/L (≈ 0.267 µM)
MIC ([1]; Staphylococcus aureus, isolate 20—K1574, read-out: MIC): 0.25 mg/L (≈ 0.267 µM)
MIC ([1]; Staphylococcus aureus, isolate 21—K1566, read-out: MIC): 0.25 mg/L (≈ 0.267 µM)
MIC ([1]; Staphylococcus aureus, isolate 22—K1551, read-out: MIC): 0.25 mg/L (≈ 0.267 µM)
MIC ([1]; Staphylococcus aureus, isolate 23—K1545, read-out: MIC): 0.25 mg/L (≈ 0.267 µM)
MIC ([1]; Staphylococcus aureus, isolate 24—K1540, read-out: MIC): 0.25 mg/L (≈ 0.267 µM)
MIC ([1]; Staphylococcus aureus, isolate 25—K1530, read-out: MIC): 0.25 mg/L (≈ 0.267 µM)
MIC ([1]; Staphylococcus aureus, n=25 per group, read-out: Median MIC): 0.25 mg/L (≈ 0.267 µM)
MIC50 ([1]; Staphylococcus aureus, 25 isolates, Summary of Results, read-out: MIC50): 0.25 mg/L (≈ 0.267 µM)
MIC90 ([1]; Staphylococcus aureus, 25 isolates, Summary of Results, read-out: MIC90): 0.25 mg/L (≈ 0.267 µM)
MIC ([1]; Staphylococcus aureus, 25 isolates, Summary of Results, read-out: Median MIC): 0.25 mg/L (≈ 0.267 µM)
MIC50 ([1]; n=25 per group): 0.25 mg/L (≈ 0.267 µM)
MIC90 ([1]; n=25 per group): 0.25 mg/L (≈ 0.267 µM)
Range of MICs ([1]; n=25 per group): 0.125 to 0.5 µg/mL
MIC (Haemophilus influenzae; Haemophilus influenzae, 25 ocular isolates, HTM medium, read-out: Median MIC): 8 mg/L (≈ 8.54 µM)
MIC (Haemophilus influenzae; Haemophilus influenzae, isolate 1 B1359, read-out: MIC): 8 mg/L (≈ 8.54 µM)
MIC (Haemophilus influenzae; Haemophilus influenzae, isolate 2 B1346, read-out: MIC): 8 mg/L (≈ 8.54 µM)
MIC (Haemophilus influenzae; Haemophilus influenzae, isolate 3 B1345, read-out: MIC): 8 mg/L (≈ 8.54 µM)
MIC (Haemophilus influenzae; Haemophilus influenzae, isolate 4 B1343, read-out: MIC): 8 mg/L (≈ 8.54 µM)
MIC (Haemophilus influenzae; Haemophilus influenzae, isolate 5 B1338, read-out: MIC): 4 mg/L (≈ 4.27 µM)
MIC (Haemophilus influenzae; Haemophilus influenzae, isolate 6 B1332, read-out: MIC): 8 mg/L (≈ 8.54 µM)
MIC (Haemophilus influenzae; Haemophilus influenzae, isolate 7 B1331, read-out: MIC): 8 mg/L (≈ 8.54 µM)
MIC (Haemophilus influenzae; Haemophilus influenzae, isolate 8 B1330, read-out: MIC): 8 mg/L (≈ 8.54 µM)
MIC (Haemophilus influenzae; Haemophilus influenzae, isolate 9 B1379, read-out: MIC): 16 mg/L (≈ 17.1 µM)
MIC (Haemophilus influenzae; Haemophilus influenzae, isolate 10 B1378, read-out: MIC): 8 mg/L (≈ 8.54 µM)
MIC (Haemophilus influenzae; Haemophilus influenzae, isolate 11 B1313, read-out: MIC): 4 mg/L (≈ 4.27 µM)
MIC (Haemophilus influenzae; Haemophilus influenzae, isolate 12 B1477, read-out: MIC): 8 mg/L (≈ 8.54 µM)
MIC (Haemophilus influenzae; Haemophilus influenzae, isolate 13 B1286, read-out: MIC): 8 mg/L (≈ 8.54 µM)
MIC (Haemophilus influenzae; Haemophilus influenzae, isolate 14 B1282, read-out: MIC): 32 mg/L (≈ 34.2 µM)
MIC (Haemophilus influenzae; Haemophilus influenzae, isolate 15 B1291, read-out: MIC): 8 mg/L (≈ 8.54 µM)
MIC (Haemophilus influenzae; Haemophilus influenzae, isolate 16 B1280, read-out: MIC): 8 mg/L (≈ 8.54 µM)
MIC (Haemophilus influenzae; Haemophilus influenzae, isolate 17 B1279, read-out: MIC): 16 mg/L (≈ 17.1 µM)
MIC (Haemophilus influenzae; Haemophilus influenzae, isolate 18 B1260, read-out: MIC): 8 mg/L (≈ 8.54 µM)
MIC (Haemophilus influenzae; Haemophilus influenzae, isolate 19 B1238, read-out: MIC): 2 mg/L (≈ 2.13 µM)
MIC (Haemophilus influenzae; Haemophilus influenzae, isolate 20 B1209, read-out: MIC): 4 mg/L (≈ 4.27 µM)
MIC (Haemophilus influenzae; Haemophilus influenzae, isolate 21 B1249, read-out: MIC): 4 mg/L (≈ 4.27 µM)
MIC (Haemophilus influenzae; Haemophilus influenzae, isolate 22 B1248, read-out: MIC): 8 mg/L (≈ 8.54 µM)
MIC (Haemophilus influenzae; Haemophilus influenzae, isolate 23 B1244, read-out: MIC): 8 mg/L (≈ 8.54 µM)
MIC (Haemophilus influenzae; Haemophilus influenzae, isolate 24 B1419, read-out: MIC): 4 mg/L (≈ 4.27 µM)
MIC (Haemophilus influenzae; Haemophilus influenzae, isolate 25 B1222, read-out: MIC): 8 mg/L (≈ 8.54 µM)
MIC50 (Haemophilus influenzae; [4]): 8 mg/L (≈ 8.54 µM)
MIC90 (Haemophilus influenzae; [4]): 8 mg/L (≈ 8.54 µM)
MIC (Haemophilus influenzae; Haemophilus influenzae, n=25 isolates, >64 replaced with 128, read-out: Median MIC): 8 mg/L (≈ 8.54 µM)
Range of MICs (Haemophilus influenzae; n=25 isolates, >64 replaced with 128): 2 to 32 µg/mL
MIC [2]: 0.5 mg/L (≈ 0.534 µM)

MIC50 [3]: 0.25 mg/L
MIC90 [3]: 0.25 mg/L
MIC50 (CS S. epidermidis (CSSE)): 0.03 mg/L
MIC90 (CS S. epidermidis (CSSE)): 0.03 mg/L
MIC [2]: 0.25 mg/L (≈ 0.273 µM)
Structure (SMILES): N=C(N)NCCCCC(=O)Nc1cc(C(F)(F)F)cc(NC(=O)c2cc(C(=O)Nc3cc(C(F)(F)F)cc(NC(=O)CCCCNC(=N)N)c3SCCN)ncn2)c1SCCN [Oligomer 2]
